Measurements published in US20260182575A1, “MOLECULES HAVING PESTICIDAL UTILITY AND INTERMEDIATES AND PROCESSES RELATED THERETO” (CORTEVA AGRISCIENCE LLC, priority 2022, published 2026).

System: Beet Armyworm (Spodoptera exigua, LAPHEG, BAW)
Assay: Bioassay 7: beet armyworm, artificial diet, 96 well plate
Format: in vivo
Details: AI alone at 0.4 wt %
Procedure: (§1) The test solutions were tested against CEW, FAW, BAW, and SBL using the following procedure: an artificial lepidopteran diet (Multispecies Lepidopteran Diet, Southland Products) was distributed in 96 well plate. Twenty μL of test solution was pipetted onto a cell in the bioassay plate. […] Each treatment was replicated 5 times for each species. Approximately five first instar CEW, FAW, BAW, or SBL larva were placed on top of the diet in each cell and was contained with a clear perforated adhesive lid. Test trays were held at approximately 25° C. and ambient relative humidity prior to grading. After five days, the number of cells where all the larvae were dead were recorded as 100% and averaged across all replicates; then the percent control was measured using Abbott's correction formula (W. S. Abbott, J. Econ. Entomol. 18 (1925), pp. 265-267) as follows:
(§2) where X=No. of live larvae on solvent check and Y=No. of live larvae on treated diet. In Table 7 the “Expected % Control” was calculated using the method described in Colby S. R., Weeds, 1967, 15, 20-22. Bioassay 8: Western Corn Rootworm (Diabrotica virgifera virgifera, DIABVI, “WCR”)

Molecule	Average % Control AI [%]
CO/C=C(/C(=O)OC)c1ccccc1Oc1cc(Oc2ccccc2C#N)ncn1 [Azoxystrobin]	0.0
COc1ccc(Cl)c(S(=O)(=O)NC(=O)c2cn3cc(C(F)(F)F)cc(Cl)c3n2)c1 [Fluazain dolizine]	0.0
N#Cc1c[nH]cc1-c1cccc2c1OC(F)(F)O2 [Fludioxonil]	0.0

System: Corn Earworm (Helicoverpa zea, HELIZE, CEW)
Assay: Bioassay 4: corn earworm, artificial diet, 128-cell tray
Format: in vivo
Details: AI alone, 0.000004 wt %
Procedure: (§3) Stock solutions were prepared with F1 as well as for each of the active ingredients individually. Test solutions were prepared from the stock solutions. Test solutions were prepared containing F1, the individual active ingredients, and mixtures of F1 with each of the active ingredients. The test solution for F1 was prepared by adding 500 μL of the stock solution to a 25 mL glass vial, then adding 500 μL of a 9:1 mixture of acetone:water. The individual active ingredients were prepared by adding 500 μL of stock solution to a 25 mL glass vial, then adding 500 μL of a 9:1 mixture of acetone:water. The test solutions containing mixtures of F1, and the individual active ingredients were prepared by adding 500 μL of the active ingredient stock solution to a 25 mL glass vial, followed by 500 μL of the F1 stock solution, creating a test solution containing 0.04% (w/v) of F1 and 0.4% (w/v) of the active ingredient. Each test solution was serially diluted to create desired doses of test solutions (F1 at 0.04% (w/v), 0.004% (w/v), 0.0004% (w/v), 0.00004% (w/v), 0.000004% (w/v), and 0.0000004% (w/v) and active ingredients at 0.4% (w/v), 0.04% (w/v), 0.004% (w/v), 0.0004% (w/v), 0.00004% (w/v), and 0.000004% (w/v)).
(§4) The test solutions were tested against CEW, FAW, and SBL using the following procedure: an artificial lepidopteran diet (Multispecies Lepidopteran Diet, Southland Products) was distributed in 128-cell bioassay trays (Frontier Agricultural Sciences™). 50 μL of test solution was pipetted into a cell in the bioassay tray. (The test solution doses of 0.04% (w/v), 0.004% (w/v), 0.0004% (w/v), 0.00004% (w/v), 0.000004% (w/v), and 0.0000004% (w/v) translated to concentrations of 5, 0.5, 0.05, 0.005, 0.0005, and 0.00005 μg/cm^2 on the diet, respectively.) A reference treatment (solvent check) was treated with the diluent only. Each treatment was replicated 8 times for each species. A 2nd instar CEW, FAW, or SBL larva was placed on top of the diet in each cell and was contained with a clear perforated adhesive lid. Test trays were held at approximately 26° C. and ambient relative humidity (RH) prior to grading.
(§5) After 5 days, the number of live larvae were recorded from each cell and percent control was measured using Abbott's correction formula (W. S. Abbott, J. Econ. Entomol. 18 (1925), pp. 265-267) as follows:
(§6) where X=No. of live larvae on solvent check and Y=No. of live larvae on treated diet. In Table B4 the “Expected % Control” was calculated using the method described in Colby S. R., Weeds, 1967, 15, 20-22. Bioassay 5: Neotropical Brown Stink Bug (Euschistus heros, EUSCHE, “BSB”).

Molecule	Average % Control AI [%]
CC(C(=O)Nc1cn(-c2cccnc2)nc1Cl)S(C)(=O)=O (stereo not drawn) [AI-2, N-(3-chloro-1-(pyridin-3-yl)-1H-pyrazol-4-yl)-2-(methylsulfonyl)propanamide]	0.0
C/C(=N\C#N)N(C)Cc1ccc(Cl)nc1 [Acetamiprid]	0.0
FC(F)(F)c1ccc(COc2ncncc2C2OCCCO2)cc1 [Benzpyrimoxan]	0.0
CNC(=O)c1cc(C#N)cc(C)c1NC(=O)c1cc(Br)nn1-c1ncccc1Cl [Cyantraniliprole]	0.0
O=C(N=c1ccccn1Cc1ccc(Cl)nc1)C(F)(F)F [Flupyrimin]	0.0
CC1(C)[C@H](/C=C(\Cl)C(F)(F)F)[C@@H]1C(=O)O[C@@H](C#N)c1cccc(Oc2ccccc2)c1 [Lambda-cyhalothrin]	0.0
COc1cccc(C(=O)NN(C(=O)c2cc(C)cc(C)c2)C(C)(C)C)c1C [Methoxyfenozide]	0.0
CC(COc1ccc(Oc2ccccc2)cc1)Oc1ccccn1 (stereo not drawn) [Pyriproxyfen]	0.0
CCOC(=O)OC1=C(c2cc(C)ccc2C)C(=O)N[C@]12CC[C@@H](OC)CC2 [Spirotetramat]	0.0
CC(c1ccc(C(F)(F)F)nc1)S(C)(=O)=NC#N (stereo not drawn) [Sulfoxaflor]	0.0
Dinotefuran	0.0
Spinosad	0.0
Tetraniliprole	0.0

Same assay, conditions: AI alone, 0.00004 wt %

Molecule	Average % Control AI [%]
CC(C(=O)Nc1cn(-c2cccnc2)nc1Cl)S(C)(=O)=O (stereo not drawn) [AI-2, N-(3-chloro-1-(pyridin-3-yl)-1H-pyrazol-4-yl)-2-(methylsulfonyl)propanamide]	0.0
C/C(=N\C#N)N(C)Cc1ccc(Cl)nc1 [Acetamiprid]	0.0
FC(F)(F)c1ccc(COc2ncncc2C2OCCCO2)cc1 [Benzpyrimoxan]	0.0
CNC(=O)c1cc(C#N)cc(C)c1NC(=O)c1cc(Br)nn1-c1ncccc1Cl [Cyantraniliprole]	0.0
O=C(N=c1ccccn1Cc1ccc(Cl)nc1)C(F)(F)F [Flupyrimin]	0.0
COc1cccc(C(=O)NN(C(=O)c2cc(C)cc(C)c2)C(C)(C)C)c1C [Methoxyfenozide]	0.0
CC(COc1ccc(Oc2ccccc2)cc1)Oc1ccccn1 (stereo not drawn) [Pyriproxyfen]	0.0
CCOC(=O)OC1=C(c2cc(C)ccc2C)C(=O)N[C@]12CC[C@@H](OC)CC2 [Spirotetramat]	0.0
CC(c1ccc(C(F)(F)F)nc1)S(C)(=O)=NC#N (stereo not drawn) [Sulfoxaflor]	0.0
Dinotefuran	0.0
Spinosad	0.0
Tetraniliprole	0.0

Same assay, conditions: AI alone, 0.0004 wt %

Molecule	Average % Control AI [%]
Tetraniliprole	12.5

System: Soybean Looper (Chrysodeixis includens, PSEPIN, SBL)
Assay: Bioassay 4: soybean looper, artificial diet, 128-cell tray
Format: in vivo
Details: AI alone, 0.000004 wt %
Procedure: as §3, §4, §5, §6

Molecule	Average % Control AI [%]
CC(C(=O)Nc1cn(-c2cccnc2)nc1Cl)S(C)(=O)=O (stereo not drawn) [AI-2, N-(3-chloro-1-(pyridin-3-yl)-1H-pyrazol-4-yl)-2-(methylsulfonyl)propanamide]	0.0
FC(F)(F)c1ccc(COc2ncncc2C2OCCCO2)cc1 [Benzpyrimoxan]	0.0
CNC(=O)c1cc(C#N)cc(C)c1NC(=O)c1cc(Br)nn1-c1ncccc1Cl [Cyantraniliprole]	0.0
O=C(N=c1ccccn1Cc1ccc(Cl)nc1)C(F)(F)F [Flupyrimin]	0.0
CC1(C)[C@H](/C=C(\Cl)C(F)(F)F)[C@@H]1C(=O)O[C@@H](C#N)c1cccc(Oc2ccccc2)c1 [Lambda-cyhalothrin]	12.5
COc1cccc(C(=O)NN(C(=O)c2cc(C)cc(C)c2)C(C)(C)C)c1C [Methoxyfenozide]	25.0
CC(COc1ccc(Oc2ccccc2)cc1)Oc1ccccn1 (stereo not drawn) [Pyriproxyfen]	12.5
CCOC(=O)OC1=C(c2cc(C)ccc2C)C(=O)N[C@]12CC[C@@H](OC)CC2 [Spirotetramat]	12.5
CC(c1ccc(C(F)(F)F)nc1)S(C)(=O)=NC#N (stereo not drawn) [Sulfoxaflor]	12.5
Spinosad	0.0
Tetraniliprole	0.0

Same assay, conditions: AI alone, 0.00004 wt %

Molecule	Average % Control AI [%]
C/C(=N\C#N)N(C)Cc1ccc(Cl)nc1 [Acetamiprid]	0.0
CNC(=O)c1cc(C#N)cc(C)c1NC(=O)c1cc(Br)nn1-c1ncccc1Cl [Cyantraniliprole]	0.0
O=C(N=c1ccccn1Cc1ccc(Cl)nc1)C(F)(F)F [Flupyrimin]	0.0
Tetraniliprole	12.5

System: Corn Earworm (Helicoverpa zea, HELIZE, CEW)
Assay: Bioassay 7: corn earworm, artificial diet, 96 well plate
Format: in vivo
Details: AI alone at 0.4 wt %
Procedure: as §1, §2

Molecule	Average % Control AI [%]
CCCC1COC(Cn2cncn2)(c2ccc(Cl)cc2Cl)O1 (stereo not drawn) [Propiconazole]	0.0
Tebuconazole	0.0

System: Western Flower Thrips (Frankliniella occidentalis, FRANOC, WFT)
Assay: Bioassay 3: western flower thrips, cotton leaf disc dip
Format: in vivo
Details: AI alone at 1:1 rate to F1 0.195 (10^-6 Wt %), 3 days
Procedure: Stock solutions of F1 and various active ingredients were prepared initially at a concentration of 0.1 mg/mL using acetone as a diluent. Stock solutions were prepared with F1 as well as for each of the active ingredients individually. Test solutions were prepared from the stock solutions. Test solutions were prepared containing F1, the individual active ingredients, and mixtures of F1 with each of the active ingredients. The test solutions for F1 and the individual active ingredients were prepared by adding 500 μL of stock solution to a 25 mL glass vial, then adding 500 μL of acetone, followed by the addition of 9 mL water with 0.025% Tween® 20 to create a 0.0005% (w/v) solution. The test solutions containing mixtures of F1, and the individual active ingredients were prepared by adding 500 μL of the active ingredient stock solution to a 25 mL glass vial, followed by 500 μL of the F1 stock solution, then by the addition of 9 mL water with 0.025% Tween® 20 to create a test solution containing 0.0005% (w/v) F1 and 0.0005% (w/v) of the active ingredient. Each test solution was serially diluted to create desired doses of test solutions (0.0005% (w/v), 0.000125% (w/v), 0.00003125% (w/v), 0.0000078% (w/v), and 0.00000195% (w/v)).
The test solutions were tested against WFT using the following procedure: Leaf discs (2.7 cm in diameter) were cut from the true leaves of cotton plants. Leaf discs were dipped into the test solutions and shaken to ensure complete coverage of the leaf disc and then placed in Millipore® PetriSlides containing a filter paper disc. Treated leaf discs were air dried for approximately 1 hour. Each leaf disc was infested with 5 WFT (9-10-day old nymphs) by placement on each leaf disc, and the PetriSlides were capped to prevent escape. Each treatment was replicated three times and the test treatments were held at approximately 26° C. and ambient relative humidity (RH) prior to grading. Reference discs (solvent check) were treated with the diluent only. Evaluation was conducted by counting the number of live WFT under magnification 3 days after treatment. Percent control was measured using Abbott's correction formula (W. S. Abbott, J. Econ. Entomol. 18 (1925), pp. 265-267) as follows:
where X=No. of live nymphs on solvent check leaf discs and Y=No. of live nymphs on treated leaf discs. In Table B3 the “Expected % Control” was calculated using the method described in Colby S. R., Weeds, 1967, 15, 20-22. Bioassay 4: Corn Earworm (Helicoverpa zea, HELIZE, “CEW”), Fall Armyworm (Spodoptera frugiperda, LAPHFR, “FAW”), and Soybean Looper (Chrysodeixis includens, PSEPIN, “SBL”).

Molecule	Average % Control AI [%]
O=C(N=c1ccccn1Cc1ccc(Cl)nc1)C(F)(F)F [Flupyrimin]	4.8
Tetraniliprole	0.0

Same assay, conditions: AI alone at 1:1 rate to F1 0.78 (10^-6 Wt %), 3 days

Molecule	Average % Control AI [%]
CNC(=O)c1cc(C#N)cc(C)c1NC(=O)c1cc(Br)nn1-c1ncccc1Cl [Cyantraniliprole]	0.0
Tetraniliprole	5.7

Same assay, conditions: AI alone at 1:1 rate to F1 3.125 (10^-6 Wt %), 3 days

Molecule	Average % Control AI [%]
COc1cccc(C(=O)NN(C(=O)c2cc(C)cc(C)c2)C(C)(C)C)c1C [Methoxyfenozide]	4.8
Spinosad	57.1
Tetraniliprole	0.0

Same assay, conditions: AI alone at 1:1 rate to F1 12.5 (10^-6 Wt %), 3 days

Molecule	Average % Control AI [%]
Tetraniliprole	12.6

Same assay, conditions: AI alone at 1:1 rate to F1 50 (10^-6 Wt %), 3 days

Molecule	Average % Control AI [%]
Tetraniliprole	0.0

System: Fall Armyworm (Spodoptera frugiperda, LAPHFR, FAW)
Assay: Bioassay 4: fall armyworm, artificial diet, 128-cell tray
Format: in vivo
Details: AI alone, 0.000004 wt %
Procedure: as §3, §4, §5, §6

Molecule	Average % Control AI [%]
CC(C(=O)Nc1cn(-c2cccnc2)nc1Cl)S(C)(=O)=O (stereo not drawn) [AI-2, N-(3-chloro-1-(pyridin-3-yl)-1H-pyrazol-4-yl)-2-(methylsulfonyl)propanamide]	0.0
FC(F)(F)c1ccc(COc2ncncc2C2OCCCO2)cc1 [Benzpyrimoxan]	0.0
CNC(=O)c1cc(C#N)cc(C)c1NC(=O)c1cc(Br)nn1-c1ncccc1Cl [Cyantraniliprole]	0.0
O=C(N=c1ccccn1Cc1ccc(Cl)nc1)C(F)(F)F [Flupyrimin]	0.0
CC1(C)[C@H](/C=C(\Cl)C(F)(F)F)[C@@H]1C(=O)O[C@@H](C#N)c1cccc(Oc2ccccc2)c1 [Lambda-cyhalothrin]	0.0
COc1cccc(C(=O)NN(C(=O)c2cc(C)cc(C)c2)C(C)(C)C)c1C [Methoxyfenozide]	12.5
CC(COc1ccc(Oc2ccccc2)cc1)Oc1ccccn1 (stereo not drawn) [Pyriproxyfen]	12.5
CCOC(=O)OC1=C(c2cc(C)ccc2C)C(=O)N[C@]12CC[C@@H](OC)CC2 [Spirotetramat]	0.0
CC(c1ccc(C(F)(F)F)nc1)S(C)(=O)=NC#N (stereo not drawn) [Sulfoxaflor]	0.0
Spinosad	12.5
Tetraniliprole	0.0

Same assay, conditions: AI alone, 0.00004 wt %

Molecule	Average % Control AI [%]
C/C(=N\C#N)N(C)Cc1ccc(Cl)nc1 [Acetamiprid]	0.0
CNC(=O)c1cc(C#N)cc(C)c1NC(=O)c1cc(Br)nn1-c1ncccc1Cl [Cyantraniliprole]	0.0
O=C(N=c1ccccn1Cc1ccc(Cl)nc1)C(F)(F)F [Flupyrimin]	0.0
CC1(C)[C@H](/C=C(\Cl)C(F)(F)F)[C@@H]1C(=O)O[C@@H](C#N)c1cccc(Oc2ccccc2)c1 [Lambda-cyhalothrin]	0.0
COc1cccc(C(=O)NN(C(=O)c2cc(C)cc(C)c2)C(C)(C)C)c1C [Methoxyfenozide]	0.0
Tetraniliprole	50.0
